Experimental data as given in patent US4006204A, “Phosphoric acid diesters” (priority 1975, dated 1977).
Like-named read-outs stand apart in the source and are kept apart here.

Tests used:
[1] = system: prostaglandin receptor; experiment: Blocking of prostaglandin receptor activity, guinea pig ileum vs Prostaglandin E2; assay type: biochemical; conditions: for prostaglandin receptor blocking activity (conclusion in words): summary of Table 1
Experimental: The following compounds were tested for their biological activity in blocking prostaglandin receptor activity. This test is useful in that many kinds of inflammation are at least partially prostaglandin mediated. Table 1 below tabulates the results.
^1 PGE2 : Guinea pig ileum IC50 vs Prostaglandin E2

[2] = target: T1, prostaglandin synthetase (Bos taurus, UniProt O62664); experiment: Prostaglandin synthetase inhibition (procedure of Flower et al.); assay type: biochemical, bovine
T1 construct: enzyme source was bovine; from tissue; host or cells: bovine seminal vesicles
T1 sequence (O62664 25-600): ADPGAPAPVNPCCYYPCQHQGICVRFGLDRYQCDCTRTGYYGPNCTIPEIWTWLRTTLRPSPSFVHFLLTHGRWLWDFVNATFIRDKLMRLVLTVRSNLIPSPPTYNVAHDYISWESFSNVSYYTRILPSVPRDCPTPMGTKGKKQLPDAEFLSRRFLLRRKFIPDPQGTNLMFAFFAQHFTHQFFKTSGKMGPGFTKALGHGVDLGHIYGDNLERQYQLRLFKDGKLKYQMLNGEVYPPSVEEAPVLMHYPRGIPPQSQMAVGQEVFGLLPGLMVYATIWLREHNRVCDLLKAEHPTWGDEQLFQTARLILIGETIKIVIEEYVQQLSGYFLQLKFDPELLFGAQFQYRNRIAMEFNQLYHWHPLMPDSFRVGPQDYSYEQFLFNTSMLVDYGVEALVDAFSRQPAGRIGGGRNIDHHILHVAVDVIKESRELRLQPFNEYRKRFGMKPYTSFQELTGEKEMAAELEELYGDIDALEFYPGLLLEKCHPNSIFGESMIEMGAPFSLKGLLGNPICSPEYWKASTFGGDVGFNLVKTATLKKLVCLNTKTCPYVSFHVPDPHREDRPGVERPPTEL
Experimental: Compounds were tested for prostaglandin synthetase inhibition via the procedure of Flower et al. (Prostaglandins 4: 325, 1973).

[3] = system: croton oil-induced rat ear edema; experiment: Tonelli anti-inflammatory animal test, croton oil-induced rat ear edema; assay type: in vivo; conditions: for % protection at 0.3% / % protection at 1.0% / % protection at 3.0%: croton oil rat ear edema; for potency in reducing edema produced by croton oil (conclusion in words): compared with hydrocortisone, summary of Table 4
Experimental: The following compounds were tested in the standard Tonelli anti-inflammatory animal test model for their effectiveness in preventing croton oil-induced rat ear edema.

[4] = system: mouse diarrhea induced by intraperitoneal prostaglandin E2; experiment: Prevention of mouse diarrhea induced by intraperitoneal prostaglandin E2 injection; assay type: in vivo; conditions: for ED50: Mus musculus, ip, administered intraperitoneally
Experimental: Compounds 1 and 2 of Table 2 were tested for their effectiveness in preventing mouse diarrhea induced by intraperitoneal prostaglandin E2 injection. The data are summarized below in Table 5:
^1 dose administered i.p.

[5] = enzyme source bovine seminal vesicles

Row | SMILES | prostaglandin receptor blocking activity (conclusion in words) [1] | IC50 [2] | prostaglandin synthetase blocking (conclusion in words) ([2]; compared with indomethacin, summary of Table 3) | % protection at 0.3% [3] | % protection at 1.0% [3] | % protection at 3.0% [3] | potency in reducing edema produced by croton oil (conclusion in words) [3] | % prevention of diarrhea ([4]; 30 Mg/kg i.p.) | % prevention of diarrhea ([4]; 60 Mg/kg i.p.) | % prevention of diarrhea ([4]; 100 Mg/kg i.p.) | ED50 [4] | Guinea pig ileum inhibition vs Prostaglandin E2 ([1]; Guinea pig ileum, vs PGE2, at 30 × 10^^-6) | IC50 ([2]; enzyme source bovine seminal vesicles, read-out: ID50 vs Prostaglandin E2 (prostaglandin synthetase inhibition)) | prostaglandin synthetase inhibition at 50 μM [2, 5]
1 | CC(OP(=O)(O)Oc1ccccc1)c1ccc(C2CCCCC2)c(Cl)c1 (stereo not drawn) [Compound 1] | prostaglandin receptor blockers | 18 µM | effective blocker of prostaglandin synthetase, comparable in effect to indomethacin | 0.0% | 23.4% | 53.8% | approximately as potent as hydrocortisone | 0% | 60% | 70% | ~60 mg/kg | – | – | –
2 | CC(COP(=O)(O)Oc1ccccc1)c1ccc(C2CCCCC2)c(Cl)c1 (stereo not drawn) [Compound 2] | prostaglandin receptor blockers | 50 µM | – | 15.9% | 51.3% | 65.4% | approximately as potent as hydrocortisone | 40% | 50% | 70% | ~60 mg/kg | – | – | –
3 | CC(C(=O)O)c1ccc(C2CCCCC2)c(Cl)c1 (stereo not drawn) [Compound 3] | weak or have no prostaglandin-blocking activity | – | – | – | – | – | – | – | – | – | – | No inhibition | 2 to 4 µM | –
4 | CC(CO)c1ccc(C2CCCCC2)c(Cl)c1 (stereo not drawn) [Compound 4, reference compound] | weak or have no prostaglandin-blocking activity | – | – | – | – | – | – | – | – | – | – | – | – | no inhibition
5 | CC(O)c1ccc(C2CCCCC2)c(Cl)c1 (stereo not drawn) [Compound 5, reference compound] | – | – | – | – | – | – | – | – | – | – | – | – | – | insignificant
6 | C[C@]12CCC(=O)C=C1CC[C@@H]1[C@@H]2[C@@H](O)C[C@@]2(C)[C@H]1CC[C@]2(O)C(=O)CO [hydrocortisone, reference compound] | – | – | – | 13.8% | 45.9% | 68.7% | – | – | – | – | – | – | – | –
